System: 266295-075-R-J1-PDC spheroid viability
Experiment: Anticancer human tumor 266295-075-R-J1-PDC patient-derived head and neck squamous carcinoma cell line growth inhibition [POLQ]
Details: spheroids with HUVEC and MSC; for IC50: curve of first compound; for viability, T/C: stronger effect = lower value
How it was run: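 Complex spheroid viability model combining PDC tumour cells with endothelial (HUVEC) and MSC stromal cells. Novobiocin, ART-558 or RP6685 were tested singly and in combination with standard and investigational anticancer drugs. Each was titrated in half-log steps from near clinical Cmax, or from 10 microM where Cmax was unknown.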

[1] = second compound 0.0316 µM, first compound 0.0316 µM
[2] = second compound 0.0316 µM, first compound 0.1 µM
[3] = second compound 0.0316 µM, first compound 0.316 µM
[4] = second compound 0.0316 µM, first compound 1 µM
[5] = second compound 0.1 µM, first compound 0.0316 µM
[6] = second compound 0.1 µM, first compound 0.1 µM
[7] = second compound 0.1 µM, first compound 0.316 µM
[8] = second compound 0.1 µM, first compound 1 µM
[9] = second compound 0.316 µM, first compound 0.0316 µM
[10] = second compound 0.316 µM, first compound 0.1 µM
[11] = second compound 0.316 µM, first compound 0.316 µM
[12] = second compound 0.316 µM, first compound 1 µM
[13] = second compound 1 µM, first compound 0.0316 µM
[14] = second compound 1 µM, first compound 0.1 µM
[15] = second compound 1 µM, first compound 0.316 µM
[16] = second compound 1 µM, first compound 1 µM
[17] = second compound 3.16 µM, first compound 0.0316 µM
[18] = second compound 3.16 µM, first compound 0.1 µM
[19] = second compound 3.16 µM, first compound 0.316 µM
[20] = second compound 3.16 µM, first compound 1 µM
[21] = second compound 10 µM, first compound 0.0316 µM
[22] = second compound 10 µM, first compound 0.1 µM
[23] = second compound 10 µM, first compound 0.316 µM
[24] = second compound 10 µM, first compound 1 µM
[25] = second compound 0.0316 µM, first compound 3.16 µM
[26] = second compound 0.0316 µM, first compound 10 µM
[27] = second compound 0.1 µM, first compound 3.16 µM
[28] = second compound 0.1 µM, first compound 10 µM
[29] = second compound 0.316 µM, first compound 3.16 µM
[30] = second compound 0.316 µM, first compound 10 µM
[31] = second compound 1 µM, first compound 3.16 µM
[32] = second compound 1 µM, first compound 10 µM
[33] = second compound 3.16 µM, first compound 3.16 µM
[34] = second compound 3.16 µM, first compound 10 µM
[35] = second compound 10 µM, first compound 3.16 µM
[36] = second compound 10 µM, first compound 10 µM
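Also: spheroids exposed to compounds for seven days before readout.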

For CCc1c2c(nc3ccc(O)cc13)-c1cc3c(c(=O)n1C2)COC(=O)[C@]3(O)CC + Nc1ccc(C#CCN(C(=O)Cc2ncc(C(F)(F)F)cc2C(F)(F)F)c2ccc(F)cc2)nn1, the IC50 (second compound 0.0316 µM) was > 1 µM, the IC50 (second compound 0.1 µM) was > 1 µM and the IC50 (second compound 0.316 µM) was > 1 µM. The IC50 (second compound 1 µM) was > 1 µM, the IC50 (second compound 3.16 µM) was > 1 µM and the IC50 (second compound 10 µM) was > 1 µM. It also gave a viability, T/C (second compound 0.0316 µM, first compound 0.00316 µM) of 86.6%, a viability, T/C (second compound 0.0316 µM, first compound 0.01 µM) of 96% and a viability, T/C [1] of 84.6%. It also gave a viability, T/C [2] of 97.7%, a viability, T/C [3] of 106% and a viability, T/C [4] of 81%. The viability, T/C (second compound 0.1 µM, first compound 0.00316 µM) was 103%, the viability, T/C (second compound 0.1 µM, first compound 0.01 µM) was 80.7% and the viability, T/C [5] was 76.9%. The viability, T/C [6] was 102%, the viability, T/C [7] was 96.2% and the viability, T/C [8] was 75.4%. It also gave a viability, T/C (second compound 0.316 µM, first compound 0.00316 µM) of 98.6%, a viability, T/C (second compound 0.316 µM, first compound 0.01 µM) of 83.1% and a viability, T/C [9] of 80.2%. It also gave a viability, T/C [10] of 101%, a viability, T/C [11] of 117% and a viability, T/C [12] of 73.5%. It also gave a viability, T/C (second compound 1 µM, first compound 0.00316 µM) of 106%, a viability, T/C (second compound 1 µM, first compound 0.01 µM) of 82.7% and a viability, T/C [13] of 81.9%. It also gave a viability, T/C [14] of 85.8%, a viability, T/C [15] of 101% and a viability, T/C [16] of 63.4%. It also gave a viability, T/C (second compound 3.16 µM, first compound 0.00316 µM) of 108%, a viability, T/C (second compound 3.16 µM, first compound 0.01 µM) of 96.8% and a viability, T/C [17] of 96.1%. It also gave a viability, T/C [18] of 109%, a viability, T/C [19] of 99.5% and a viability, T/C [20] of 65%. For the same molecule, the viability, T/C (second compound 10 µM, first compound 0.00316 µM) was 100%, the viability, T/C (second compound 10 µM, first compound 0.01 µM) was 97.1% and the viability, T/C [21] was 83.2%. For the same molecule, the viability, T/C [22] was 81.5%, the viability, T/C [23] was 117% and the viability, T/C [24] was 70.4%.

For CCCS(=O)(=O)Nc1ccc(F)c(C(=O)c2c[nH]c3ncc(-c4ccc(Cl)cc4)cc23)c1F + Cc1cccc(N(C)C(=O)C2C(O)CCN2c2nc(C)cc(C(F)(F)F)c2C#N)c1, the IC50 (second compound 0.0316 µM) was > 10 µM, the IC50 (second compound 0.1 µM) was > 10 µM and the IC50 (second compound 0.316 µM) was > 10 µM. For the same molecule, the IC50 (second compound 1 µM) was > 10 µM, the IC50 (second compound 3.16 µM) was > 10 µM and the IC50 (second compound 10 µM) was > 10 µM. It also gave a viability, T/C [1] of 108%, a viability, T/C [2] of 97.7% and a viability, T/C [3] of 122%. It also gave a viability, T/C [4] of 161%, a viability, T/C [25] of 150% and a viability, T/C [26] of 126%. The viability, T/C [5] was 127%, the viability, T/C [6] was 81.3% and the viability, T/C [7] was 92.8%. For the same molecule, the viability, T/C [8] was 126%, the viability, T/C [27] was 187% and the viability, T/C [28] was 142%. For the same molecule, the viability, T/C [9] was 95.5%, the viability, T/C [10] was 93% and the viability, T/C [11] was 98.1%. The viability, T/C [12] was 134%, the viability, T/C [29] was 171% and the viability, T/C [30] was 139%. For the same molecule, the viability, T/C [13] was 118%, the viability, T/C [14] was 76.5% and the viability, T/C [15] was 95.5%. It also gave a viability, T/C [16] of 132%, a viability, T/C [31] of 158% and a viability, T/C [32] of 142%. For the same molecule, the viability, T/C [17] was 106%, the viability, T/C [18] was 100% and the viability, T/C [19] was 96.6%. It also gave a viability, T/C [20] of 111%, a viability, T/C [33] of 155% and a viability, T/C [34] of 132%. The viability, T/C [21] was 96.3%, the viability, T/C [22] was 137% and the viability, T/C [23] was 113%. It also gave a viability, T/C [24] of 111%, a viability, T/C [35] of 187% and a viability, T/C [36] of 134%.

COc1cc(C2c3cc4c(cc3C(OC3OC5COC(C)OC5C(O)C3O)C3COC(=O)C23)OCO4)cc(OC)c1O (stereo unspecified) + Nc1ccc(C#CCN(C(=O)Cc2ncc(C(F)(F)F)cc2C(F)(F)F)c2ccc(F)cc2)nn1 was tested, and the IC50 (second compound 0.0316 µM) was > 10 µM, the IC50 (second compound 0.1 µM) was > 10 µM and the IC50 (second compound 0.316 µM) was > 10 µM. The IC50 (second compound 1 µM) was > 10 µM, the IC50 (second compound 3.16 µM) was > 10 µM and the IC50 (second compound 10 µM) was > 10 µM. For the same molecule, the viability, T/C [1] was 81.1%, the viability, T/C [2] was 103% and the viability, T/C [3] was 77.6%. For the same molecule, the viability, T/C [4] was 94.4%, the viability, T/C [25] was 98.9% and the viability, T/C [26] was 82.8%. It also gave a viability, T/C [5] of 84.1%, a viability, T/C [6] of 97% and a viability, T/C [7] of 103%. The viability, T/C [8] was 97.4%, the viability, T/C [27] was 111% and the viability, T/C [28] was 80.1%. For the same molecule, the viability, T/C [9] was 97%, the viability, T/C [10] was 127% and the viability, T/C [11] was 82.2%. It also gave a viability, T/C [12] of 90.7%, a viability, T/C [29] of 94.9% and a viability, T/C [30] of 90.6%. For the same molecule, the viability, T/C [13] was 104%, the viability, T/C [14] was 94.1% and the viability, T/C [15] was 92.3%. The viability, T/C [16] was 96.4%, the viability, T/C [31] was 92.3% and the viability, T/C [32] was 88.8%. The viability, T/C [17] was 75.9%, the viability, T/C [18] was 118% and the viability, T/C [19] was 84.8%. For the same molecule, the viability, T/C [20] was 93.2%, the viability, T/C [33] was 107% and the viability, T/C [34] was 90.5%. For the same molecule, the viability, T/C [21] was 90.8%, the viability, T/C [22] was 92.9% and the viability, T/C [23] was 95.2%. It also gave a viability, T/C [24] of 81.2%, a viability, T/C [35] of 95.8% and a viability, T/C [36] of 77.1%.
